Measurements from publication PMC12590632, “Identification and characterization of a nonpeptidic cyclophilin ligand with antiviral activity against feline and porcine α-coronaviruses” (Veterinary Research, 2025).

Experiments:
CRFK cells = assay: Cytotoxicity assay (CellTiter-Glo); assay type: cell-based, feline; settings: 24 h, up to 25 µM
Experimental: The cells were plated in a 96-well plate at a density of 2 × 10^4 cells/well and incubated for 24 h. The culture medium was replaced with serial dilutions of culture medium containing three replicates of different concentrations (ranging from 0.9 μM to 25 μM) of F83233, F832 and F833 molecules, DMSO or media alone as controls. The plates were incubated for 24 h at 37 °C. Cytotoxicity was evaluated with the CellTiter-Glo Cell Viability Assay Kit (Promega, Madison, USA).

FIPV in CRFK cells = assay: Time-of-drug addition assay; assay type: cell-based, feline infectious peritonitis virus
Experimental: (§1) CRFK cells were plated in a 96-well plate at a density of 2 × 10^4 cells/well and incubated for 24 h. Serial tenfold dilutions (10^–1 to 10^–6) of viral supernatants, obtained with or without cyclophilin inhibitors, were added to CRFK cells in eight replicate wells per dilution. The viral inoculum was removed 2 h after infection, and the cells were incubated for 24 h at 37 °C. The cells were fixed via sequential incubation in absolute ethanol followed by 70% ethanol (10 min each at room temperature). FIPV antigens were then detected by immunofluorescence using ascitic fluid from an infected cat (dilution 1/500), followed by incubation with an anti-cat AlexaFluor-488-conjugated secondary antibody (Jackson ImmunoResearch, West Grove, USA). Wells containing fluorescent cells were counted. The 50% infectious dose (ID50) was calculated using the Spearman–Karber method. The results are presented as the means of ≥ 2 experiments performed in triplicate.
CRFK cells were plated in a 96-well plate at a density of 2 × 10^4 cells per well and incubated for 24 h. The cells were infected with FIPV at an MOI of 1 in the presence of 5 µM F83233 (for 0 h post-infection (pi)) or in the presence of DMSO (for the other time points). After viral inoculation, the culture medium was removed, fresh medium containing 5 μM F83233 was added at 1, 3, 6, 9 or 18 h post-infection, and infection was stopped at 24 h post-inoculation. The cell supernatants were stored at −80 °C prior to end-point dilution to measure the effect of F83233 on FIPV infectivity under different conditions. The experiment was repeated three times, and each condition was tested in triplicate.

Human cyclophilin A = target: T1, Human cyclophilin A (Homo sapiens, UniProt P62937); assay: PPIase enzyme assay (chymotrypsin-coupled); assay type: biochemical; settings: 20 °C, mean ± SD of two or more experiments
T1 construct: made in house
T1 sequence (P62937 whole entry): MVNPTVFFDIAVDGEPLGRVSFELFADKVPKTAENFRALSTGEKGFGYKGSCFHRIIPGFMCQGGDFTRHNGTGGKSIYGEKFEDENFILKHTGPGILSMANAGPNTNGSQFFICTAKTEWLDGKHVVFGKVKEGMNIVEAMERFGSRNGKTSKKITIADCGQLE
Experimental: Human cyclophilin A was purified, and its PPIase activity in the absence or presence of SMCypI was measured as previously described. Briefly, cyclophilin A PPIase activity was measured at 20 °C using the standard chymotrypsin-coupled assay. The assay buffer (25 mM HEPES and 100 mM NaCl, pH 7.8) and purified cyclophilin A were precooled to 4 °C. Then, 5 µL of 50 mg/mL chymotrypsin in 1 mM HCl was added (final reaction volume of 500 µL). The reaction was initiated by adding the peptide substrate Suc-Ala-Ala-Cis-Pro-Phe-pNA to a LiCl/TFE solution with rapid inversion. The absorbance of p-nitroaniline was monitored at 390 nm until the reaction was complete, i.e., when the absorbance reached a plateau (1 min). The final concentration of LiCl in the assay was 20 mM, and TFE was present at a concentration of 4% (v/v). The absorbance was measured every second using a spectrophotometer (BioMate3, Thermo Fischer Scientific). For the inhibition assessment, 5 µL of the tested compound in dimethyl sulfoxide (DMSO) was added to the cyclophilin A solution in the assay buffer. CsA (Sigma‒Aldrich, Saint-Louis, USA) was used as a positive control for PPIase inhibition in all measurements. IC50 values were calculated from dose‒response curves and reported as the mean ± standard deviation of two or more experiments.

[1] = system: PEDV (CV777 strain) in Vero cells; assay: PEDV-induced syncytium formation and dsRNA staining in Vero cells; assay type: cell-based, porcine epidemic diarrhoea virus; settings: 12.5 µM
From the text: (§2) Fixed PK15 and Vero cells were processed similarly. TGEV infection was detected with a homemade anti-spike antibody (called 51.13 [46, 47], dilution 1/10 000) from a mouse and with an anti-mouse AlexaFluor-555-conjugated secondary antibody. PEDV infection was detected with polyclonal antibodies from pigs (a gift from Drs. Y. Blanchard and M. Contrant, Anses, Ploufragan, dilution 1/300) and with an anti-pig AlexaFluor-488-conjugated secondary antibody (SouthernBiotech, Birmingham, USA). […] (J2 from Cell Signaling Technology, Danvers, USA, dilution 1/1000), followed by incubation with an anti-mouse AlexaFluor-555-conjugated secondary antibody. The cells were counterstained with DAPI (Sigma‒Aldrich, final concentration of 1 µg/mL). Secondary antibodies (with the exception of the anti-pig at a 1/400 dilution) were used at a 1/800 dilution and were obtained from Molecular Probes (Thermo Fischer Scientific).
(§3) For each concentration of F832, F833 or F83233, 3 to 5 pictures were randomly taken with an epifluorescence microscope (Zeiss, Oberkochen, Germany) with a 10X objective. The area of staining was measured with ImageJ. The number of nuclei/syncytia (defined as PEDV-positive cells with > 4 nuclei) in PEDV-infected cells was manually counted using ImageJ. Blind analysis was performed to avoid bias.

[2] = system: TGEV (Purdue strain) in PK15 cells; assay: TGEV infection in PK15 cells, immunofluorescence, infected area; assay type: cell-based, transmissible gastroenteritis virus; settings: for Effect on TGEV infection: 12.5 µM
Experimental: (§4) CRFK, PK15 and Vero cells were plated in a 96-well plate at a density of 2 × 10^4 cells/well and incubated for 18 h at 37 °C. The cells were infected with FIPV (MOI of 1), TGEV (MOI of 0.5) or PEDV (MOI of 0.5). Viral inoculation was performed in the presence of F83233, F832 and F833 at concentrations ranging from 0.1 μM to 25 μM for FIPV assays and from 0.78 µM to 12.5 µM for TGEV and PEDV. Two hours after viral inoculation, fresh medium supplemented with the same concentrations of inhibitors was added. The antiviral effect was measured at the peak of viral replication, i.e., after 24 h for FIPV and PEDV infection and after 48 h for TGEV infection. The experiments were repeated twice, and each condition was tested in duplicate or triplicate in independent wells.
as §2, §3

[3] = system: PEDV (CV777 strain) in Vero cells; assay: PEDV infection in Vero cells, immunofluorescence, infected area; assay type: cell-based, porcine epidemic diarrhoea virus; settings: for Antiviral potency against PEDV: MOI 0.5, 24 h, 0.78-12.5 µM
Experimental: as §4, §2, §3

[4] = system: FIPV (strain 79-1146) in CRFK cells; assay: SMCypI screening for FIPV infection, viral titre by end-point dilution; assay type: cell-based, feline infectious peritonitis virus; settings: 50 µM SMCypI, MOI 1, 24 h
Experimental: CRFK cells were plated in a 96-well plate at a density of 2 × 10^4 cells/well and incubated for 24 h. The cells were infected for 1 h with FIPV at a multiplicity of infection (MOI) of 1 in the presence of 50 µM or 10 µM SMCypI or CsA, respectively. The inoculum was removed after 1 h, and inhibitors (50 μM SMCypI or 10 μM CsA) were added for 24 supplemental hours. The supernatants were collected and stored at −80 °C prior to the end-point dilution assays.
as §1, with “The results are presented as the means of ≥ 2 experiments performed in triplicate.” left out

[5] = system: FIPV (strain 79-1146) in CRFK cells; assay: FIPV viral titre in cell supernatants, dose response in CRFK cells; assay type: cell-based, feline infectious peritonitis virus; settings: for Decrease of FIPV virus titre: 25 µM
Experimental: as §1, §4

[6] = 5 µM F83233, FIPV MOI 1, CRFK cells

Row | Compound | Cytotoxicity (CRFK cells) | Decrease of antiviral efficiency between addition at 1 and 3 h post-infection (FIPV in CRFK cells; [6]) | Time of addition giving the maximal antiviral effect (FIPV in CRFK cells; [6]) | Inhibition of FIPV titre compared with DMSO control (FIPV in CRFK cells; 5 µM F83233 added 18 h post-infection) | IC50 (Human cyclophilin A) [nM] | Double-strand RNA staining (viral genome replication) in syncytia [1] | Size of PEDV-induced syncytia and number of nuclei per syncytium [1] | Effect on TGEV-infected cells ([2]; 6.25 µM and 12.5 µM, 48 h) | Concentration at which active against TGEV ([2]; MOI 0.5, 48 h) [µM] | Effect on PEDV infection ([3]; 3.125 µM, 24 h) | Inhibition of FIPV titre [4] | Reduction in FIPV viral titre ([5]; 5 µM, 24 h) | FIPV viral reduction ([5]; 10 µM) | Maximal inhibitory effect, decrease of FIPV titre ([5]; 12.5 µM, 24 h) | Decrease of FIPV virus titre ([5]; 24 h) | Effect on TGEV infection ([2]; MOI 0.5, 48 h) | Antiviral potency against PEDV [3]
1 | O=C(NCc1ccc2c(c1)CCCN2)NC(C(=O)N1CCCC1c1cccc2ccsc12)C1CCCCC1 (stereo not shown) [Compound F83233] | low cytotoxicity | more than 1 Log10 | simultaneously with the virus or 1 h later | ≈ 1 Log10 | 700 ± 500 | markedly impacted | drastically decreased | almost complete disappearance of infected cells | 1.6 | important reduction in infection | more than 4 Log10 | approximately 2 Log10 | approximately 3 Log10 | 3–4 Log10 | ≈ 3 Log10 | – | –
2 | O=C(NCc1ccc2c(c1)CCCN2)NC(C(=O)N1CCCC1c1cccc2ccsc12)c1ccccc1 (stereo not shown) [Compound F832] | low cytotoxicity | – | – | – | 400 ± 90 | – | – | – | – | – | – | – | – | – | ≈ 0.5 Log10 | no significant effect | modest antiviral potency
3 | Nc1ccc(CNC(=O)NC(C(=O)N2CCCC2c2cccc3ccsc23)C2CCCCC2)cc1 (stereo not shown) [Compound F833] | low cytotoxicity | – | – | – | 600 ± 100 | – | – | – | – | – | – | – | – | – | ≈ 0.5 Log10 | no significant effect | modest antiviral potency
